Laboratory results as given in ChEMBL document CHEMBL1201862, “PubChem BioAssay data set” (2004).
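Each compound was tested at five concentrations against cells in 96-well plates for 48 hours. The concentration for 50% growth inhibition is given as GI50.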 The source made the active and inactive calls. No stated cut-off is given here; in the data, active = GI50 up to about 1.1 µM and inactive = higher.

What was measured:
Test in all cases: NCI anticancer screen, dose series, 48 h
[1] = system: SK-MEL-28
[2] = system: SF-295
[3] = system: SW-620
[4] = system: OVCAR-5
[5] = system: LXFL 529
[6] = system: HT-29
[7] = system: IGROV-1
[8] = system: 786-0
[9] = system: TK-10
[10] = system: SR
[11] = system: DMS-273
[12] = system: CAKI-1
[13] = system: RPMI-8226
[14] = system: SF-539
[15] = system: PC-3
[16] = system: SNB-75
[17] = system: NCI-H522
[18] = system: KM-20L2
[19] = system: DLD-1
[20] = system: COLO 205
[21] = system: HOP-18
[22] = system: SK-MEL-5
[23] = system: Hs-578T
[24] = system: CCRF-CEM
[25] = system: NCI-H23
[26] = system: HCC 2998
[27] = system: SF-268
[28] = system: M19-MEL
[29] = system: MOLT-4
[30] = system: KM12
[31] = system: T47D
[32] = system: NCI-H226
[33] = system: M14
[34] = system: MDA-MB-435
[35] = system: MDA-MB-231
[36] = system: LOX IMVI
[37] = system: DU-145
[38] = system: UACC-257
[39] = system: SK-OV-3
[40] = system: HCT-15
[41] = system: HOP-92
[42] = system: SNB-78
[43] = system: NCI/ADR-RES
[44] = system: XF498
[45] = system: Malme-3M
[46] = system: SK-MEL-2
[47] = system: EKVX
[48] = system: OVCAR-3
[49] = system: SNB-19
[50] = system: OVCAR-4
[51] = system: A498
[52] = system: RXF 631
[53] = system: ACHN
[54] = system: U-251
[55] = system: UACC-62
[56] = system: HCT-116
[57] = system: MDA-N
[58] = system: BT-549
[59] = system: UO-31
[60] = system: RXF 393
[61] = system: K562
[62] = system: A549
[63] = system: NCI-H460
[64] = system: HOP-62
[65] = system: OVCAR-8
[66] = system: HL-60
[67] = system: SN12C
[68] = system: MCF7

With COc1ccc2c(-c3cc4ccccc4o3)cc(=O)oc2c1 the GI50 [1] was 53.7 µM (inactive), the GI50 [2] was 22.9 µM (inactive) and the GI50 [3] was > 100 µM (inactive). The GI50 [4] was > 42.2 µM (inactive), the GI50 [5] was > 76.2 µM (inactive) and the GI50 [6] was > 78.2 µM (inactive). For the same compound, the GI50 [7] was 41.3 µM (inactive), the GI50 [8] was 25.8 µM (inactive) and the GI50 [9] was 21.7 µM (inactive). The GI50 [10] was > 100 µM (inactive), the GI50 [11] was 61.8 µM (inactive) and the GI50 [12] was 40.6 µM (inactive). The GI50 [13] was > 88.7 µM (inactive), the GI50 [14] was 16.7 µM (inactive) and the GI50 [15] was 73.5 µM (inactive). The GI50 [16] was 8.17 µM (inactive), the GI50 [17] was 37.2 µM (inactive) and the GI50 [18] was > 100 µM (inactive). For the same compound, the GI50 [19] was > 100 µM (inactive), the GI50 [20] was > 100 µM (inactive) and the GI50 [21] was 48.6 µM (inactive). The GI50 [22] was 40.1 µM (inactive), the GI50 [23] was 11.4 µM (inactive) and the GI50 [24] was > 100 µM (inactive). For the same compound, the GI50 [25] was 52.1 µM (inactive), the GI50 [26] was > 55.1 µM (inactive) and the GI50 [27] was 25.3 µM (inactive). The GI50 [28] was > 100 µM (inactive), the GI50 [29] was > 100 µM (inactive) and the GI50 [30] was 98.2 µM (inactive). The GI50 [31] was > 55 µM (inactive), the GI50 [32] was 58.5 µM (inactive) and the GI50 [33] was 75.7 µM (inactive). The GI50 [34] was > 100 µM (inactive), the GI50 [35] was 47.8 µM (inactive) and the GI50 [36] was 60.7 µM (inactive). The GI50 [37] was > 74.8 µM (inactive), the GI50 [38] was 54.8 µM (inactive) and the GI50 [39] was 23.1 µM (inactive). The GI50 [40] was greater than 100 µM, the GI50 [41] was 24.3 µM (inactive) and the GI50 [42] was 35.2 µM (inactive). The GI50 [43] was 24.7 µM (inactive), the GI50 [44] was 21.3 µM (inactive) and the GI50 [45] was 71.1 µM (inactive). The GI50 [46] was 66.5 µM (inactive), the GI50 [47] was 48.6 µM (inactive) and the GI50 [48] was 16.6 µM (inactive). The GI50 [49] was 26.1 µM (inactive), the GI50 [50] was 22.8 µM (inactive) and the GI50 [51] was 31.3 µM (inactive). The GI50 [52] was 36.9 µM (inactive), the GI50 [53] was 39.4 µM (inactive) and the GI50 [54] was 24.3 µM (inactive). The GI50 [55] was 67.5 µM (inactive), the GI50 [56] was 42.3 µM (inactive) and the GI50 [57] was > 76.6 µM (inactive). The GI50 [58] was 34.1 µM (inactive), the GI50 [59] was 15 µM (inactive) and the GI50 [60] was 18 µM (inactive). The GI50 [61] was > 100 µM (inactive), the GI50 [62] was 44 µM (inactive) and the GI50 [63] was 44.7 µM (inactive). For the same compound, the GI50 [64] was 13.3 µM (inactive), the GI50 [65] was 29.9 µM (inactive) and the GI50 [66] was > 100 µM (inactive). The GI50 [67] was 68.9 µM (inactive) and the GI50 [68] was > 67.3 µM (inactive).
